According to patent US20240368149A1, “ANALOGS OF XANOMELINE” (Terran Biosciences Inc., priority 2023, published 2024):
Several values for one entry are separate records, joined by “and”; a condition that tells them apart may be missing. Equal entries are not always repeated. Each block holds one compound with its values, some of them ahead of it.

Columns and labels:
Assay type in all cases: in vivo, male Sprague-Dawley (SD) rats
[1] = Rat PK: plasma xanomeline after single subcutaneous (SC) dosing of xanomeline or xanomeline prodrugs at 1 mg/kg (Example A-1); details: xanomeline analyte in plasma; for AUC(0-inf): read-out: AUCINF_obs; for half-life: read-out: T½ (converted)
Procedure: A pharmacokinetic (PK) study was performed in three male Sprague-Dawley (SD) rats following subcutaneous (SC) administration of xanomeline or test compounds (prodrugs of xanomeline) at 1 mg/kg. Parent compound (xanomeline) was measured in plasma.
(§1) Samples were sent for method optimization and measurement of parent compound (xanomeline) via unique calibration lines and following acceptance QC's. Dose formulation concentrations were also measured, and PK parameters were determined (Cmax (ng/mL), Tmax (hr), Cl (ml/min/kg), Vdss (L/kg), t½(hr), AUC0-t (ng/mL*hr), AUC0-inf (ng/mL*hr), MRT (hr), Bioavailability (% F) where warranted) using WinNon Lin software. Data (including bioanalytical results and assay performance) were reported in a tabulated format
• Step 1: A stock solution of the compound(s) were prepared to 1 mg/ml in DMSO • Step 2: A 10,000 ng/mL matched matrix standard was prepared using the stock solution(s) • Step 3: Calibration standards in matched matrix were prepared between 10,000 ng/ml and 0.5 ng/mL using serial dilution • Step 4: QC samples were prepared in matched matrix at 4000, 800, 400, 40 and 10 ng/mL Calibration Standards:
• Step 1: A stock of the IS was diluted to 1 mg/ml in DMSO • Step 2: An ISY is made by diluting the stock to 10 μg/ml in DMSO • Step 3: An ISZ is made by diluting the ISY to 25 ng/ml in 0.1% formic acid in acetonitrile
(§2) • Step 1: Add 10 μL of the standards, QCs and samples to a 96-well plate (extraction plate) • Step 2: To each standard, QC and test sample, add 100 μL of ISZ • Step 3: Sonicate for 2 min then mix the plate for approximately 2 min at 1200 rpm on a plate shaker • Step 4: Centrifuge the plate at 3000 rpm for 5 mins • Step 5: Add 50 μL 0.1% Formic acid in UP H2O to wells of a new 96-well plate • Step 6: Transfer 50 μL extracted sample to relevant position in second 96-well plate • Step 7: Mix at 1200 rpm for 2 minutes • Step 8: Heat seal and analyse on the LC-MS/MS system • Instrument: Xevo TQ-D with CTC Autosampler
• Step 1: A stock solution of the compound(s) were prepared to 1 mg/ml in DMSO • Step 2: A 10,000 ng/mL matched matrix standard was prepared using the stock solution(s) • Step 3: A 2,000 ng/ml matched matrix stock dilution was made from the 10,000 ng/ml stock dilution • Step 4: Standards were prepared at a concentration of 200 ng/ml to 0.01 ng/ml in matched matrix via serial dilution from the second Stock dilution • Step 5: QC samples were prepared in matched matrix at 150, 40, 20, 4 and 0.4 ng/mL Calibration Standards:
as §2, with “min” for “mins”, “formic” for “Formic”, “min” for “minutes”, “TQ-Absolute UHPLC-MS/MS” for “TQ-D with CTC Autosampler”
(§3) Formulation for SC administration: For SC dosing, xanomeline and xanomeline prodrugs were formulated as solution in 10% DMSO/90% HPCD (20% in water) to a concentration of 0.5 mg free metabolite material/mL. This provided a dose of 1 mg free metabolite/kg when administered SC in 2 mL/kg dosing volumes.
(§4) The pharmacokinetic properties of the synthesized xanomeline prodrugs after subcutaneous administration in a rat model were assessed. The concentration of xanomeline was measured in each rat at various sampling timepoints after subcutaneous administration of xanomeline or the synthesized xanomeline prodrugs to rats.
Dose formulations were made at equivalent concentrations of active compound (xanomeline) adjusted for molecular weight of the compounds. The synthesized xanomeline prodrugs were dosed at 1 mg/kg subcutaneous (SC) nominal dose. […]

[2] = Rat PK: plasma xanomeline after subcutaneous (SC) dosing of xanomeline, prodrugs or pamoate salts at 5 mg/kg or 3.5 mg/kg (Example A-2); details: parent xanomeline dosed SC; for Tmax / Cmax / AUC(0-inf) / AUC(0-t) / half-life: male, Sprague-Dawley; for AUC(0-inf): read-out: Xanomeline (SC) AUC0-inf; for AUC(0-t): read-out: Xanomeline (SC) AUC0-last; for half-life: read-out: Xanomeline (SC) T1/2 (converted)
Procedure: as §1, with “t½ (hr),” for “t½(hr),”, “format.” for “format”
as §3, with “of 2.5 mg free metabolite material/mL or 1.75” for “of 0.5”, “of 5” for “of 1”, “metabolite/kg or 3.5 mg free metabolite/kg, respectively,” for “metabolite/kg”
as §4
Dose formulations were made at equivalent concentrations of active compound (xanomeline) adjusted for molecular weight of the compounds. The synthesized xanomeline prodrugs were dosed at 5 mg/kg subcutaneous (SC) nominal dose except for xanomeline oxyisobutyl pivalate chloride prodrug and xanomeline oxypropyl pivalate chloride prodrug, which were dosed at 3.5 mg/kg subcutaneous. Nominal doses were used in PK parameter determinations. The parent compound (xanomeline) was dosed at 5 mg/kg subcutaneous (SC).

[3] = Rat PK: plasma xanomeline after oral (PO) dosing of xanomeline or xanomeline prodrugs at 10 mg/kg (Example A-7); details: analyte xanomeline in plasma, 10 mg/kg of xanomeline
Procedure: as §1, with “t½ (hr),” for “t½(hr),”, “format and QC'd.” for “format”
Compound was dissolved in DMSO:HPCD (20% w/v in water) [10:90] 2 mg API/mL to provide doses of 10 mg API/kg when administered PO in 5 mL/kg dosing volumes.
as §4, with “oral” for “subcutaneous”
Dose formulations were made at equivalent concentrations of active compound (xanomeline) adjusted for molecular weight of the compounds. The synthesized xanomeline prodrugs were dosed at 10 mg/kg oral (PO) nominal dose. Nominal doses were used in PK parameter determinations. The parent compound (xanomeline) was dosed at 10 mg/kg oral (PO).

[4] = male, Sprague-Dawley, plasma, sc, Mean of animals (Table 3)
[5] = male, Sprague-Dawley, plasma, sc, individual animal (Table 3)

Compound: CCCCCCOc1nsnc1C1=CCCN(C)C1 [Xanomeline, 3-hexyloxy-4-(1-methyl-3,6-dihydro-2H-pyridin-5-yl)-1,2,5-thiadiazole]
Tmax ([1]; male, Sprague-Dawley, in vivo, individual animal (Table 3)): 0.25 h
AUC(0-t) [1, 4]: 38.3 ng·h/mL
AUC(0-inf) [1, 4]: 42 ng·h/mL
Cmax ([1]; male, Sprague-Dawley, plasma, sc, Mean of animals (Table 3), read-out: Cmax): 14.4 ng/mL
half-life [1, 4]: 1.85 h
AUC(0-t) [1, 5]: 40.1 ng·h/mL
AUC(0-inf) [1, 5]: 46 ng·h/mL
Cmax ([1]; male, Sprague-Dawley, plasma, sc, individual animal (Table 3), read-out: Cmax): 15.9 ng/mL
half-life [1, 5]: 2.3 h
Tmax ([1]; male, Sprague-Dawley, Mean of animals (Table 3)): 0.25 h
Tlast ([1]; Mean of animals (Table 3)): 7.00 h
AUCINF_obs ([1]; individual animal (Table 3)): 42.9 ng·h/mL and 37.0 ng·h/mL
AUClast ([1]; individual animal (Table 3)): 40.0 ng·h/mL and 34.9 ng·h/mL
Cmax ([1]; individual animal (Table 3)): 15.1 ng/mL and 12.3 ng/mL
Tlast ([1]; individual animal (Table 3)): 7.00 h
T½ ([1]; individual animal (Table 3)): 1.66 h and 1.58 h
Tmax ([2]; in vivo, individual animals): 1 h
Cmax ([2]; plasma, sc, Mean): 43 ng/mL
Tmax ([2]; plasma, sc, Mean): 0.833 h
AUC(0-inf) ([2]; plasma, sc, Mean): 154 ng·h/mL
AUC(0-t) ([2]; plasma, sc, Mean): 171 ng·h/mL
half-life ([2]; plasma, sc, Mean): 1.37 h
Cmax ([2]; plasma, sc, individual animals): 54.6 ng/mL
Tmax ([2]; plasma, sc, individual animals): 0.5 h
AUC(0-inf) ([2]; plasma, sc, individual animals): 185 ng·h/mL
AUC(0-t) ([2]; plasma, sc, individual animals): 180 ng·h/mL
half-life ([2]; plasma, sc, individual animals): 1.5 h
Xanomeline (SC) Tlast ([2]; Mean): 37.3 h
Xanomeline (SC) AUC0-inf ([2]; individual animals): 123 ng·h/mL
Xanomeline (SC) AUC0-last ([2]; individual animals): 213 ng·h/mL and 121 ng·h/mL
Xanomeline (SC) Cmax ([2]; individual animals): 30.0 ng/mL and 44.4 ng/mL
Xanomeline (SC) T1/2 ([2]; individual animals): 1.24 h
Xanomeline (SC) Tlast ([2]; individual animals): 8.00 h (2×) and 96.0 h

Xanomeline Tlast ([3]; Mean of 3 animals): 2.67 h
Xanomeline Tlast ([3]; individual animal, 10 mg/kg): 1.00 h and 7.00 h
Compound: xanomeline methyl hexylcarbonate chloride prodrug
